The values below come from article PMC7357169, “Blinded, Multicenter Evaluation of Drug-induced Changes in Contractility Using Human-induced Pluripotent Stem Cell-derived Cardiomyocytes” (Toxicological Sciences, 2020).

Molecules are shown by their SMILES. pEC50, pIC50: −log10 of the molar value. Entries after “also recorded” stand apart in the source; their conditions may differ. Like-named read-outs stand apart in the source and are kept apart here.

For data set [1], the system named is R-PAT hiPSC-CMs. Briefly: CO:R-PAT contractility, refined conditions (RPMI-B27, slowed beat rate). The format is cell-based, human. To be noted: analysis of different stages of relaxation; platform taken from context (CO:R-PAT). From the text:
The hiPSC-CMs used were R-PAT (derived and differentiated in house as described previously) ([Mosqueira et al., 2018]; [Smith et al., 2018]), and iCell^2 and Pluricyte (purchased from Cellular Dynamics International and Ncardia). Manufacturer instructions were followed for the commercial hiPSC lines. For iCell^2, seeding was at 25 000 cells into each well of 96-well plates (Nunclon Delta Surface; Thermo, 167008) and then maintained for 10 days before use in drug evaluation studies. The same plates were used for R-PAT hiPSC-CMs, which were seeded at 40 000 cells/well and maintained until days 20 and 21 of differentiation before use. For Pluricyte hiPSC-CMs, seeding was at 35 000 cells into each well of 96-well plates (Greiner Bio-One; 655087) and then maintained for 8 days before use. […]
(§1) hiPSC-CMs in 96-well plate were transiently loaded in 50 µl/well of SFM containing FluoVolt (1:200 part B, 1:2000 part A; Life Tech, F10488) for 20 min at 37°C and 5% CO2. […] Electrophysiology data were analyzed using CellOPTIQ proprietary software of Clyde Biosciences and were normalized to a maximum amplitude of 1 and minimum of 0 to standardize height for comparison of traces created in OriginPro (OriginLab version 7.5). Contractility data were analyzed based on pixel displacement using an ImageJ plug-in. […]

Another data set concerns hiPSC-CM EHTs. In words: EHT contractility with beat rate slowed by 300 nM ivabradine and electrical pacing 0.5-2.0 Hz. The conditions noted are these: for CA response: EHTs with 300 nM ivabradine, paced, only at 0.5 and 0.7 Hz, sometimes at 1 Hz, never at 1.5 or 2 Hz, high concentration bolus. It counts as cell-based, human. The protocol:
We extended these studies to the 3D EHT platform, this time slowing spontaneous beating to < 0.5 Hz with 300 nM ivabradine, a pharmacological blocker of the “funny” If current ([Bois et al., 1996]). […] Whereas force-frequency relationships was negative above 1.5 Hz, it was positive between 0.5 and 1.5 Hz, evidenced by a 147% increase in force generation concurrent with significant shortening of CT and RT (Supplementary Figure 6). We therefore re-evaluated 6 of the PIs in the presence of 300 nM ivabradine with electrical pacing at 0.5, 0.7, 1.0, 1.5, and 2.0 Hz. These also included epinephrine, levosimendan, and pimobendan, which had been incorrectly predicted by EHT:R-PAT and/or EHT:ERC platform-cell combinations. […] Thus, in both 2D and 3D configurations, lower beating frequencies led to increased predictivity for PIs.
Figure 5. Slowed beat rate increases the predictivity of positive inotropes (PIs) in 3D engineered heart tissues (EHTs). Contraction analysis was carried out using EHTs with 6 of the PIs from the drug test set: epinephrine (Epi), forskolin (For), levosimendan (Lev), pimobendan (Pim), dobutamine (Dob), and milrinone (Mil) which had been predicted with variable accuracy (Figure 4A, web tool). […] Scatter plots show percentage changes relative to baseline at respective frequency. Averaged peaks for force are shown for baseline (BL, black peaks) versus after treatment in EHTs paced at 0.5 Hz (blue peaks) or 2.0 Hz (red peaks). Dunnett’s stats versus baseline at respective frequency: *p < .05; **p < .01; ***p < .001; ****p < .0001.
Supplementary Figure 6. Positive force frequency relationship in EHTs paced between 0.5 and 1.5 Hz. Spontaneous beat rate of EHTs was reduced by 3 hour pre-treatment with 300 nM ivabradine, an If current inhibitor. […] CA increased from 0.5 to 1.5 Hz but plateaued and declined at higher frequencies. These changes were reflected in the CT and RT data. Dunnett's stats vs vehicle control: *, P<0.05; **, P<0.01; ***, P<0.001; ****, P<0.0001.

For data set [2] the following is noted: cited from earlier work; for FTPC: free therapeutic plasma concentration, Refs of Supplementary Table 1; for FPTC (free plasma therapeutic concentration): ref Supplementary Table 1.
The next data set relates to cardiac contractility. To be noted: cited from earlier work; for NIE: ref (Perez et al. 1995), (Boldt et al. 2010), (Bois et al. 1996), (Mesirca et al. 2014), (Choi et al. 2016); for pEC50: read-out: Expected effect on contractility in isolated cardiomyocytes/heart muscles, EC50.
Another data set concerns hiPSC-CMs. Briefly: CellOPTIQ voltage (FluoVolt) analysis, hiPSC-CMs. The format is cell-based, human. As to the method:
as §1, with “CO2. After incubation, the medium was replaced with 200 μl/well of SFM. Plates were then incubated at 37°C and 5% CO2 for 15 min before recording, which were made using a ×40 (NAO.6) objective at 10 KHz.” for “CO2.”
Action potential duration (APD30, APD90) and triangulation (APD90–APD30) were calculated from voltage waveforms to determine whether electrophysiology was altered, including the appearance of arrhythmias. For Ca^2+ handling, amplitude, time to peak, and decay time were assessed, whereas similar parameters (contraction amplitude [CA], contraction time [CT], and relaxation time [RT]) were derived for contraction (Supplementary Figure 2). […]

The next data set concerns heart. Further details: method as in Refs column of Supplementary Table 1. To be noted: Refs of Supplementary Table 1; cited from earlier work.
Data set [3] relates to R-PAT hiPSC-CMs. In words: CO:R-PAT contractility after 24 h exposure.
Description: We asked whether longer term exposure would affect contractility (Supplementary Figure 7).
Prolonged exposure detects NIs in 2D and 3D cultures of hiPSC-CMs. […] CA is shown normalized to time controls.
A further data set deals with ERC18 hiPSC-CM EHTs. To be noted: EHT:ERC.
Data set [4] deals with adult rabbit ventricular cardiomyocytes. In words: CellOPTIQ (CO) contractility, adult rabbit ventricular cardiomyocytes. The conditions noted are these: isolated rabbit myocytes; not reported in any hiPSC-CM platform. It counts as cell-based. As to the method:
Hearts were removed and perfused retrogradely at 25 ml⋅min^−1 (37°C) with a modified KH solution containing 0.75 mmol/l [Ca^2+] for 5 min, followed by a nominally Ca^2+-free KH solution with 0.1 mmol/l EGTA for 5 min. Hearts were then perfused with KH solution containing 0.24 mmol/l [Ca^2+], 1 mg/ml collagenase (type I), and 0.06 mg/ml protease (type XIV). After approximately 4–5 min, enzyme was removed and the left ventricular free wall was then cut into strips in the recirculated enzyme solution containing 1% bovine serum albumin before being mixed to yield a single cell suspension. Cells were maintained in either Ca^2+-free KH solution or 1 mmol/l Ca^2+ (via stepwise increments) until use. Intact cardiomyocytes in 1.8 mmol/l modified Ca^2+ KH solution were loaded with FluoVolt (Thermo Fisher Scientific) at 1:3000 dilution for 10 min. The incubation medium was removed and the cells resuspended in a modified KH solution.
Cardiomyocytes were allowed to settle on a coverslip in a bath (35 mm petri-dish) at 37°C. […] A parallel set of vehicle (DMSO) time control experiments were also performed FluoVolt fluorescence (490 nm excitation) was measured at a sampling rate of 10 KHz, whereas the image was recorded on a CCD camera at 100 Hz frame rate using > 700 nm light. […]

The mark [5] stands for this setting: isolated cardiomyocytes/heart muscles, Refs of Supplementary Table 1.

Protocol for ERC18 hiPSC-CM EHTs: For long-term contractility analysis of sunitinib, hiPSC-CM EHTs were equilibrated to regular cell culture medium without serum (DMEM, Biochrom F0415; penicillin/streptomycin 1% [volume/volume], Gibco 15140; aprotinin 5 µM, Sigma-Aldrich A1153; insulin 1.7 µM, Sigma-Aldrich I9278; glutamine 2000 µM, Gibco 25030-081; triiodothyronine 0.77 nM, European Commission-Joint Research Center IRMM-469; hydrocortisone 137 µM: Sigma-Aldrich H0888). Medium change, drug addition and video-optical contractility analysis was performed daily and contraction data was normalized to time control.
The EHT:ERC platform-cell combination was exposed to 100 µM doxorubicin (C) or 1 µM sunitinib (D) for up to 17.5 hr (C) or up to 8 days (D). CA is shown normalized to time controls.

For `COc1cc2c(cc1OC)CC(=O)N(CCCN(C)C[C@H]1Cc3cc(OC)c(OC)cc31)CC2` [Ivabradine], in the data set on R-PAT hiPSC-CMs [1], the “relaxation analysis at 80% relaxation” value is on record as “late relaxation deficit”. Moreover, in the data set with hiPSC-CM EHTs (300 nM ivabradine), the “spontaneous beating of EHTs” value is on record as less than 0.5 Hz. Moreover, the FTPC in data set [2] is 0.01 to 0.1 µM. In addition, in data set [2], the “FPTC (free plasma therapeutic concentration)” value is 0.01 to 0.1 µM. Besides, the NIE in the data set with cardiac contractility (guinea pig PM, at 100 µM) was -60%; with cardiac contractility (guinea pig atria, at 100 µM), -13%; with cardiac contractility (human trabeculae at 100 µM) it was -38%. In the data set on cardiac contractility (setting [5]), the “Expected effect on contractility in isolated cardiomyocytes/heart muscles” value is “None, NC at >10 µM (spontaneously beating preps), NIE (-13/-60% in guinea pig atria/PM, -38% human trabeculae at 100 µM); PI in mouse left atria and 30% of human trabeculae”.

Consider `CCN(CC)CCNC(=O)c1c(C)[nH]c(/C=C2\C(=O)Nc3ccc(F)cc32)c1C` [Sunitinib], for which the “electrophysiology after 30 min exposure” value in the data set on hiPSC-CMs is listed as “altered electrophysiology”. Moreover, the “Expected cardiac effects in vivo” value in the data set on heart is given as “NI, NC at high doses, chronic cardiotox”. The “effect of exposure to the highest concentration for 24 h” value in the data set with R-PAT hiPSC-CMs [3] was “loss of contraction and cell death”. Also, the “CA over a 7-day period” value in the data set on ERC18 hiPSC-CM EHTs (1 µM sunitinib, normalized to time controls) is “decline in CA”. For the same compound, in data set [2], the FTPC was 0.003 µM and the “FPTC (free plasma therapeutic concentration)” value is 0.003 µM. Moreover, in the data set with cardiac contractility (negative inotropy, isolated cardiomyocytes/heart muscles, Refs of Supplementary Table 1, read-out: Expected effect on contractility in isolated cardiomyocytes/heart muscles, IC50), the pIC50 is 5.00.

Turning to `CC(CCc1ccc(O)cc1)NCCc1ccc(O)c(O)c1` (centres unmarked) [Dobutamine], the “relaxation analysis at 50% relaxation” value in the data set on R-PAT hiPSC-CMs [1] is “positive lusitropy”. For the same compound, in the data set with hiPSC-CM EHTs, the CA response entry is recorded as “increased contraction amplitude”. In data set [2], the FTPC was 0.07 to 1 µM and the “FPTC (free plasma therapeutic concentration)” value was 0.07 to 1 µM. Moreover, in the data set on cardiac contractility (setting [5]), the pEC50 was 5.52 to 6.00.

`COc1cccc2c1C(=O)c1c(O)c3c(c(O)c1C2=O)C[C@@](O)(C(=O)CO)C[C@@H]3O[C@H]1C[C@H](N)[C@H](O)[C@H](C)O1` [Doxorubicin]: the “electrophysiology after 30 min exposure” value with hiPSC-CMs is listed as “altered electrophysiology; also recorded: changes in electrophysiology”. The “Expected cardiac effects in vivo” value in the data set with heart is “NI, time course of cardiotox dose-dependent”. Besides, the “inotropy trend with 24 h treatment” value with R-PAT hiPSC-CMs [3] (1 to 30 µM, increased CA, decreased CT) is “trend of positive inotropy”. Moreover, in the data set with R-PAT hiPSC-CMs [3], the “effect of exposure to the highest concentration for 24 h” value was “loss of contraction and cell death”. Besides, the “time after which EHT contraction ceased” value in the data set on ERC18 hiPSC-CM EHTs (100 µM doxorubicin) was 17.5 h. Moreover, in [2], the FTPC is 1 to 2 µM and the “FPTC (free plasma therapeutic concentration)” value was 1 to 2 µM. The “Expected effect on contractility in isolated cardiomyocytes/heart muscles” value in the data set with cardiac contractility (setting [5]) was “PI+NCl and reduced post-rest potentiation at 30 µM (GP), but strong NI at 1000 µM (GP, rat); rate-dependent”. Also, the reported inotropic effects result in the data set on cardiac contractility (ref Kim et al., 1980, Vanboxtel et al., 1978, Wang and Korth, 1995) was “transient positive inotropy is followed by robust negative inotropy at higher concentrations”.

As to `C=C[C@@]1(C)CC(=O)[C@]2(O)[C@@]3(C)[C@@H](O)CCC(C)(C)[C@@H]3[C@H](O)[C@H](OC(C)=O)[C@@]2(C)O1` [Forskolin], in data set [4], the “spontaneous diastolic SR Ca2+ release” value was “spontaneous diastolic Ca^2+ release and associated diastolic shortening was observed”. In addition, the “Expected cardiac effects in vivo” value in the data set with heart is on record as “PI, PC”. In the data set with hiPSC-CM EHTs, the CA response result is “increased contraction amplitude”. Further, in data set [2], the FTPC was 0.012 to 0.024 µM and the “FPTC (free plasma therapeutic concentration)” value is 0.012 to 0.024 µM. The pEC50 in the data set on cardiac contractility (setting [5]) was 5.00 to 5.30.
